From publication PMC7594867 (Journal of Enzyme Inhibition and Medicinal Chemistry, 2020)
Like-named read-outs stand apart in the source and are kept apart here.

Columns and labels:
[1] = test system: HT29; assay: MTT cytotoxicity assay, HT29; format: cell-based; conditions: for IC50: Homo sapiens, HT-29, 72 h, read-out: IC50 ± SD, HT29; for Selectivity index, HT29: IC50 MRC-5 / IC50 HT29
[2] = test system: A2780; assay: MTT cytotoxicity assay, A2780; format: cell-based; conditions: for IC50: Homo sapiens, A2780, 72 h, read-out: IC50 ± SD, A2780; for Selectivity index, A2780: IC50 MRC-5 / IC50 A2780
[3] = test system: normal human foetal lung fibroblast (MRC-5); assay: MTT cytotoxicity assay, normal MRC-5 cells; format: cell-based; conditions: MRC5, 72 h, read-out: IC50 (µM ± SD) MRC-5
[4] = test system: MCF-7, A2780, and HT29 cell lines; assay: MTT cytotoxicity assay, three cancer cell lines taken together; format: cell-based
[5] = test system: MCF-7; assay: MTT cytotoxicity assay, MCF-7; format: cell-based; conditions: for IC50: Homo sapiens, MCF7, 72 h, read-out: IC50 ± SD, MCF-7; for Selectivity index, MCF-7: IC50 MRC-5 / IC50 MCF-7
[6] = test system: MCF-7 cells; assay: Annexin V-FITC/PI staining apoptosis assay; format: cell-based; conditions: MCF-7, 24 h, control 0%
[7] = molecular target: CDK-2 (Homo sapiens, UniProt P24941); assay: CDK-2 inhibition, ADP-Glo kinase assay; format: biochemical
[8] = test system: MCF-7 cells; assay: Cell cycle analysis; format: cell-based; conditions: for effect on cell cycle: MCF-7, 24 h, 1, 5, 10 µM; for number of cells in the G1 cell-cycle phase: MCF-7, 24 h, highest increase, concentration not given
[9] = 72 h, read-out: IC50, range over the three cancer cell lines

Structure (SMILES)	IC50 [1] [µM]	Selectivity index, HT29 [1]	IC50 [2] [µM]	Selectivity index, A2780 [2]	IC50 [3] [µM]	IC50 ([4]; read-out: Average IC50) [µM]	IC50 [5] [µM]	Selectivity index, MCF-7 [5]	IC50 [4, 9] [µM]	Selectivity index, range over the three cell lines ([4]; IC50 MRC-5 / IC50 cancer cell line)	apoptotic events ([6]; 1 µM) [%]	apoptotic events ([6]; 5 µM) [%]	apoptotic events ([6]; 10 µM) [%]	IC50 [7] [µM]	effect on cell cycle [8]	number of cells in the G1 cell-cycle phase [8] [%]
COc1ccc(NC(=O)Nc2c(C#N)c3n(c2C(=O)Nc2ccc(C)cc2)CCC3)cc1 [Compound 17b, 7-Cyano-6-(3-(4-methoxyphenyl)ureido)-N-(p-tolyl)-2,3-dihydro-1H-pyrrolizine-5-carboxamide]	1.44 ± 0.17	4.31	0.42 ± 0.07	14.76	6.2 ± 0.88	1.57	2.85 ± 0.31	2.18	–	–	–	–	–	–	–	–
CCCCCCNC(=O)Nc1c(C#N)c2n(c1C(=O)Nc1ccccc1)CCC2 [Compound 16a, 7-Cyano-6-(3-hexylureido)-N-phenyl-2,3-dihydro-1H-pyrrolizine-5-carboxamide]	0.85 ± 0.07	13.95	0.35 ± 0.18	33.89	11.9 ± 0.87	0.6	0.59 ± 0.01	20.10	0.35 to 0.85	13.95–33.89	–	–	–	–	–	–
Cc1ccc(NC(=O)c2c(NC(=S)Nc3cccc4ccccc34)c(C#N)c3n2CCC3)cc1 [Compound 20b, 7-Cyano-6-(3-(naphthalen-1-yl)thioureido)-N-(p-tolyl)-2,3-dihydro-1H-pyrrolizine-5-carboxamide]	3.83 ± 0.58	0.52	2.04 ± 0.95	0.98	2 ± 0.75	3.61	4.97 ± 0.42	0.40	–	–	–	–	–	–	–	–
N#Cc1c(NC(=O)Nc2ccc(F)cc2)c(C(=O)Nc2ccccc2)n2c1CCC2 [Compound 18a, 7-Cyano-6-(3-(4-fluorophenyl)ureido)-N-phenyl-2,3-dihydro-1H-pyrrolizine-5-carboxamide]	9.13 ± 0.85	1.17	10.6 ± 2.83	1.01	10.7 ± 0.61	10.2	10.76 ± 0.07	0.99	–	–	–	–	–	–	–	–
N#Cc1c(NC(=S)Nc2cccc3ccccc23)c(C(=O)Nc2ccccc2)n2c1CCC2 [Compound 20a, 7-Cyano-6-(3-(naphthalen-1-yl)thioureido)-N-phenyl-2,3-dihydro-1H-pyrrolizine-5-carboxamide]	0.72 ± 0.12	0.60	0.16 ± 0.01	2.69	0.43 ± 0.13	0.43	0.42 ± 0.15	1.02	–	–	38	39	47	0.0779 ± 0.0022	G1 -S cell cycle arrest	57
COc1ccc(NC(=O)Nc2c(C#N)c3n(c2C(=O)Nc2ccccc2)CCC3)cc1 [Compound 17a, 7-Cyano-6-(3-(4-methoxyphenyl)ureido)-N-phenyl-2,3-dihydro-1H-pyrrolizine-5-carboxamide]	5.29 ± 1.51	0.43	0.44 ± 0.03	5.23	2.3 ± 0.15	2.21	0.9 ± 0.11	2.56	–	–	–	–	–	–	–	–
CS(=O)(=O)CCNCc1ccc(-c2ccc3ncnc(Nc4ccc(OCc5cccc(F)c5)c(Cl)c4)c3c2)o1 [Lapatinib, lapatinib, reference compound]	12.5 ± 1.27	0.54	10.5 ± 0.76	0.64	6.74 ± 1.22	9.92	6.77 ± 1.16	1.00	6.77 to 12.5	–	–	–	–	–	–	–
Cc1ccc(NC(=O)c2c(NC(=O)Nc3cccc4ccccc34)c(C#N)c3n2CCC3)cc1 [Compound 19b, 7-Cyano-6-(3-(naphthalen-1-yl)ureido)-N-(p-tolyl)-2,3-dihydro-1H-pyrrolizine-5-carboxamide]	0.68 ± 0.14	2.26	5.39 ± 1.13	0.29	1.54 ± 0.2	2.17	0.44 ± 0.09	3.50	–	–	–	–	–	–	–	–
COc1ccc(NC(=O)Nc2c(C#N)c3n(c2C(=O)Nc2ccc(Cl)cc2)CCC3)cc1 [Compound 17c, N-(4-Chlorophenyl)-7-cyano-6-(3-(4-methoxyphenyl)ureido)-2,3-dihydro-1H-pyrrolizine-5-carboxamide]	0.42 ± 0.16	9.05	0.54 ± 0.02	7.04	3.8 ± 0.25	1.44	3.36 ± 0.83	1.13	–	–	–	–	–	–	–	–
CCCCCCNC(=O)Nc1c(C#N)c2n(c1C(=O)Nc1ccc(Cl)cc1)CCC2 [Compound 16c, N-(4-Chlorophenyl)-7-cyano-6-(3-hexylureido)-2,3-dihydro-1H-pyrrolizine-5-carboxamide]	3.1 ± 0.1	0.24	0.53 ± 0.1	1.42	0.75 ± 0.14	12.6	34.1 ± 4.61	0.02	–	–	–	–	–	–	–	–
N#Cc1c(NC(=S)Nc2cccc3ccccc23)c(C(=O)Nc2ccc(Cl)cc2)n2c1CCC2 [Compound 20c, N-(4-chlorophenyl)-7-cyano-6-(3-(naphthalen-1-yl)thioureido)-2,3-dihydro-1H-pyrrolizine-5-carboxamide]	3.67 ± 1.65	0.80	2.81 ± 0.98	1.04	2.92 ± 0.6	2.75	1.76 ± 0.95	1.66	–	–	–	–	–	–	–	–
N#Cc1c(NC(=O)Nc2cccc3ccccc23)c(C(=O)Nc2ccc(Cl)cc2)n2c1CCC2 [Compound 19c, N-(4-Chlorophenyl)-7-cyano-6-(3-(naphthalen-1-yl)ureido)-2,3-dihydro-1H-pyrrolizine-5-carboxamide]	2.56 ± 0.7	1.05	3.07 ± 1.5	0.87	2.68 ± 0.37	2.3	1.27 ± 0.01	2.11	–	–	–	–	–	–	–	–
Cc1ccc(NC(=O)c2c(NC(=O)Nc3ccc(F)cc3)c(C#N)c3n2CCC3)cc1 [Compound 18b, 7-Cyano-6-(3-(4-fluorophenyl)ureido)-N-(p-tolyl)-2,3-dihydro-1H-pyrrolizine-5-carboxamide]	9.71 ± 2.25	0.15	0.97 ± 0.14	1.51	1.46 ± 0.42	3.62	0.19 ± 0.02	7.68	–	–	20	–	–	0.115 ± 0.0032	G1 -S cell cycle arrest	53
N#Cc1c(NC(=O)Nc2ccc(F)cc2)c(C(=O)Nc2ccc(Cl)cc2)n2c1CCC2 [Compound 18c, N-(4-Chlorophenyl)-7-cyano-6-(3-(4-fluorophenyl)ureido)-2,3-dihydro-1H-pyrrolizine-5-carboxamide]	1.38 ± 0.02	0.07	0.21 ± 0.1	0.48	0.1 ± 0.01	0.63	0.29 ± 0.19	0.34	–	–	–	–	–	–	–	–
CCCCCCNC(=O)Nc1c(C#N)c2n(c1C(=O)Nc1ccc(C)cc1)CCC2 [Compound 16b, 7-Cyano-6-(3-hexylureido)-N-(p-tolyl)-2,3-dihydro-1H-pyrrolizine-5-carboxamide]	1.56 ± 0.14	1.70	0.23 ± 0.04	11.52	2.65 ± 0.29	0.99	1.17 ± 0.31	2.26	–	–	–	–	–	–	–	–
N#Cc1c(NC(=O)Nc2cccc3ccccc23)c(C(=O)Nc2ccccc2)n2c1CCC2 [Compound 19a, 7-Cyano-6-(3-(naphthalen-1-yl)ureido)-N-phenyl-2,3-dihydro-1H-pyrrolizine-5-carboxamide]	0.2 ± 0.01	13.35	0.32 ± 0.17	8.34	2.67 ± 0.37	0.31	0.4 ± 0.42	6.68	–	–	–	–	–	0.0255 ± 0.0017	G1 -S cell cycle arrest	70
